Experimental data published in patent US7754772B2, “Nitrosated nonsteroidal antiinflammatory compounds, compositions and methods of use” (NicOx, S.A., priority 2002, dated 2010).
Like-named read-outs stand apart in the source and are kept apart here.

What was measured:
[1] = system: Male Sprague-Dawley rats, carrageenan paw edema; test: rat paw edema test (carrageenan), antiinflammatory activity; type: in vivo
Protocol: The rat paw edema test was used to measure the antiinflammatory activity. The rat paw edema test was performed according to the method of Winter et al, Proc. Soc. […] Male Sprague-Dawley rats (250-275 g) were fasted overnight and dosed by oral gavage with vehicle or suspensions of compound one hour prior to the subplantar injection of 50 μl of 1% suspension of carrageenan. Three hours later, the paw volume was measured and compared with the initial volume measured immediately after carrageenan injection.

[2] = system: Male Sprague Dawley rats, gastric hemorrhagic lesion; conditions: rat, in vivo, po
Protocol: (§1) Male Sprague Dawley rats (Charles River Laboratories, Wilmington, Mass.) weighing 230-250 g were used for the experiments. The rats were housed with laboratory chow and water ad libitum prior to the study. The rats were fasted for 24 hours with free access to water and then dosed by oral gavage with vehicle or with test compounds given at a volume of 0.5 mL/100 g. […] Rats were euthanized by CO2 three hours after dosing. The stomachs were dissected along the greater curvature, washed with a directed stream of 0.9% saline and pinned open on a sylgard based petri dish for examination of the hemorrhagic lesion. Gastric lesion score was expressed in mm and calculated by summing the length of each lesion.

[3] = system: Male Sprague Dawley rats, gastric hemorrhagic lesion; test: rat gastric lesion test; conditions: rat fasted 24 hours, oral gavage, lesion score (summed length, mm) three hours after dosing; ratio relative to parent NSAID (Naproxen = 1)
Protocol: as §1

[4] = oral gavage one hour prior to subplantar carrageenan, paw volume three hours later, expressed as ratio (Vehicle = 1)

Relative Activity Gastric Lesion [3]	melting point [°C]	Compound	Relative Activity Antiinflammation [1, 4]	Relative Activity Gastric Lesion [2]	Relative Activity Antiinflammation ([1]; in vivo, po)
–	–	COc1ccc2cc([C@H](C)C(=O)Oc3ccccc3C(=O)OCCO[N+](=O)[O-])ccc2c1 [Example 33]	0.60	0.07	–
–	–	COc1ccc2cc([C@H](C)C(=O)OCC(=O)N3CCC(CCO[N+](=O)[O-])CC3)ccc2c1 [Example 31, 2-(4-(2-(nitrooxy)ethyl)piperidyl)-2-oxoethyl (2S)-2-(6-methoxy(2-naphthyl))propanoate]	0.61	0.06	–
0.18	–	COc1ccc2cc([C@H](C)C(=O)OCC(C)(CO[N+](=O)[O-])[N+](=O)[O-])ccc2c1 (stereo partly drawn) [Example 12, 2-Methyl-2-nitro-3-(nitrooxy)propyl(2S)-2-(6-methoxy(2-naphthyl)) propanoate]	0.47	–	–
0.02	–	COc1ccc2cc([C@H](C)C(=O)OCC3(CO[N+](=O)[O-])COCOC3)ccc2c1 [Example 9]	0.69	–	–
0.07	–	COc1ccc2cc([C@H](C)C(=O)OCC(=O)O[C@@H]3CO[C@H]4[C@H]3OC[C@H]4O[N+](=O)[O-])ccc2c1 [Example 26, (1S,5S,2R,6R)-6-(Nitrooxy)-4,8-dioxabicyclo(3.3.0)oct-2-yl)oxycarbonyl) methyl (2S)-2-(6-methoxy (2-naphthyl)) propanoate]	0.75	–	–
–	–	COc1ccc2cc([C@H](C)C(=O)NOCC(=O)N3CCC(CO[N+](=O)[O-])CC3)ccc2c1 [Example 35, (2S)-2-(6-Methoxy(2-naphthyl))-N-(2-(4-((nitrooxy)methyl)piperidyl)-2-oxoethoxy)propanamide]	0.06	–	–
–	–	COc1ccc2cc([C@H](C)C(=O)OCC(=O)N3CCC(CO[N+](=O)[O-])CC3)ccc2c1 [Example 19, 2-(4-((Nitrooxy)methyl)piperidyl)-2-oxoethyl (2S)-2-(6-methoxy(2-naphthyl))propanoate]	0.60	0.30	–
–	–	COc1ccc2cc([C@H](C)C(=O)Oc3cccc(C(=O)OCCO[N+](=O)[O-])c3)ccc2c1 [Example 36]	–	0.57	0.65
–	–	COc1ccc2cc([C@H](C)C(=O)OC[C@@H](O)CO[N+](=O)[O-])ccc2c1 [Example 28, (2R)-2-hydroxy-3-(nitrooxy)propyl (2S)-2-(6-methoxy(2-naphthyl)) propanoate]	0.57	–	–
0.11	–	COc1ccc2cc([C@H](C)C(=O)OCCS(=O)(=O)CCO[N+](=O)[O-])ccc2c1 [Example 2, 2-((2-(Nitrooxy)ethyl)sulfonyl)ethyl (2S)-2-(6-methoxy(2-naphthyl)) propanoate]	0.49	–	–
–	–	COc1ccc2cc([C@H](C)C(=O)OCC(=O)N3CCN(CCO[N+](=O)[O-])CC3)ccc2c1.Cl [Example 37, 2-(4-(2-(Nitrooxy)ethyl)piperazinyl)-2-oxoethyl (2S)-2-(6-methoxy(2-naphthyl))propanoate hydrogen chloride]	–	0.72	0.56
–	–	COc1ccc2cc([C@H](C)C(=O)OC[C@H](CO[N+](=O)[O-])O[N+](=O)[O-])ccc2c1 [Example 5]	–	0.21	0.45
0.25	60 to 61	CCN(CCO[N+](=O)[O-])C(=O)COC(=O)[C@@H](C)c1ccc2cc(OC)ccc2c1 [Example 18, (N-Ethyl-N-(2-(nitrooxy)ethyl)carbamoyl)methyl (2S)-2-(6-methoxy(2-naphthyl))propanoate]	–	–	–
–	–	COc1ccc2cc(C(C)C(=O)OCCN(CCO[N+](=O)[O-])c3ccc([N+](=O)[O-])cc3)ccc2c1 (centres unmarked) [Example 4, 2-((2-(Nitrooxy)ethyl)4-nitrophenyl)amino)ethyl 2-(6-methoxy-2-naphthyl) propanoate]	0.92	0.04	–
